From US7576226B2, “Process of making isomers of norelgestromin and methods using the same” (priority 2003, dated 2009)
Values after ≈ are worked out from the molar mass of the structure shown.

Assays:
[1] = Equilibrium solubility in distilled water (UV spectrophotometry); type: physicochemical; conditions: thermodynamic from solid, room temperature
Procedure: The determination of equilibrium solubility of E and Z isomers of norelgestromin was carried out in distilled water. 20 mg of norelgestromin was added to 20 mL of distilled water at room temperature. The suspension was stirred continuously and samples were withdrawn from time to time. The samples were filtered, and the norelgestromin content of the filtrates was determined by a spectrophotometrical method measuring UV absorption. The spectrophotometrical measurements were performed on a VARIAN Cary 3E spectrophotometer at room temperature.

[2] = Lipophilicity by isocratic reversed-phase HPLC (k′, CHI); type: physicochemical; conditions: for Polarity (k′, HPLC): Nova-Pak C18, acetonitrile mobile phase, 25° C.; for Polarity (CHI index, HPLC): acetonitrile concentration of the mobile phase where log k′=0
Procedure: Lipophilicity was determined by an HPLC method. The HPLC measurements were performed on a Thermo Separation Product (SpectraSystem P4000 and SpectraFOCUS Forward Optical Scanning Detector) HPLC instrument. Data were analyzed by ChromQuest (ver. 2.51) software.
For reversed-phase HPLC measurements, a Nova-Pak C18 column was used (dimension of 4 μm×4.6 mm×250 mm: Waters, Ireland). Detection was performed at λ=280 nm and 25° C. The flow rate of the mobile phase was 1.0 mL/min. HPLC gradient grade acetonitrile was used as organic component (Merck KGaA., Darmstadt, Germany). The retention data of the two isomers were obtained by isocratical analysis of the mobile phases containing different amounts of acetonitrile. The void time (t0) was determined by injection of methanol.
Samples were dissolved in a 1:1 mixture of acetonitrile:water in a concentration of 1 mg/4 mL. The log k′ values were calculated from the mean retention time measured after two subsequent injections of 10 μL volume (log k′=log((tR−t0)/t0)). The log k′ values were represented as a function of the concentration of acetonitrile.
The chromatographical hydrophobicity index (CHI) is a measure of the lipophilic character of the compounds in the reversed phase HPLC measurements. By definition, the CHI parameter is that concentration of acetonitrile of the mobile phase where log k′=0.

[3] = Metabolic stability and clearance in human liver microsomes; type: in vitro ADME; conditions: human liver microsomes 1 mg/mL, 5 μM isomer, mean of 3 parallel measurements; for Metabolic stability: F% (metabolic bioavailability)
Procedure: The metabolic stability of norelgestromin E and Z isomers was examined in human liver microsomes. The 2.5 mL incubation mixture contained 6 mM of Na-pyrophosphate, 5 mM of MgCl2, 5 mM of glucose-6-phosphate, 1 U/mL of glucose 6-phosphate dehydrogenase, human liver microsomes (1 mg/mL) and 5 μM of norelgestromin E or Z isomers. The pH was adjusted with 100 mM of Tris-HCl buffer to pH 7.4. The reaction was started by the addition of 5 mM of NADPH. 0.5 mL samples were taken at 0.5 and 20 minutes with immediate precipitation by 0.5 mL of ice-cold methanol. 1 mL precipitated samples were centrifuged for 30 min at 1200 g, and 10 μL of supernatant was injected into the HPLC.
Analytical measurements were conducted using a Merck-Hitachi HPLC system, with UV monitoring at 244 nm. Unchanged material was measured and intrinsic clearance (Clint) and metabolic bioavailability (F%) was calculated with the following equations: dc/dt/c0=Clint, (mL/min×g protein), where dc/dt is the concentration change in a given period of time and c0 is the initial concentration of the norelgestromin isomer (measured in the 0 min sample). Additionally, Clint1×45=Clint2 (mL/min×g liver) and EH=Clin2/Clint2+HBF, where EH is hepatic extraction and HBF is the hepatic blood flow. Finally the metabolic stability: […]
For statistical analysis, Student's t-test was used (Microsoft Excel). The results summarized in Table 2 are calculated as a mean of 3 parallel measurements.

[4] = test system: Caco-2 human adenocarcinoma (epithelial) cell line monolayers; test: Caco-2 permeability measurement; type: in vitro ADME; conditions: Caco-2 monolayer, luminal to basolateral, 50 μM
Procedure: Drug absorption studies were performed with Caco-2 human adenocarcinoma (epithelial) cell line monolayers as an in vitro model. Passive flux characteristics of drugs across the Caco-2 monolayer have shown a correlation with human oral bioavailability.
Caco-2 cells obtained from American Type Culture collection, Rockville, Md., (ATCC) were grown at 37° C. in an atmosphere of 5% CO2 in Dulbecco's modified eagle medium supplemented with 10% heat inactivated fetal bovine serum (GIBCOBRL 11360-039) and antibiotics: penicillin 100 U/mL, and streptomycin 100 μg/mL (GIBCOBRL 15140-031).
Confluent cell monolayers grown in an incubator (at 37° C. with 5% CO2/[…] and 95% humidity) were subcultured every seven days by treatment with 0.25% trypsin containing 1 mM EDTA.
19-23-day-old confluent monolayers of fully differentiated Caco-2 cells were used for transport studies after 6-10 passages.
EHS Cell Attachment Matrix (Promega G5971), Minimum Essential medium Eagle (MEM) with Earle salts, L-Glutamine (GIBCOBRL 41500-091) and Transwell Polycarbonate Membrane (Costar 3401) were used.
Coated Transwells with EHS Cell Attachment Matrix (Promega G5971) and 200000-500000 Caco-2 cells are applied/inserted. […]
The concentrations of the isomers were determined by liquid chromatography with ultraviolet (HPLC/UV) analysis. […]
Dim.: 125−3 mm.+guard. […] Peak quantitation: height; calculation method: EXT-STD.

[5] = CHI of six steroids (structure-absorption experiment); type: physicochemical; conditions: chromatographical hydrophobicity index, isocratical conditions
Procedure: The beneficial effect of the increasing lipophilicity for the transdermal absorption was proven by carrying out a structure-absorption experiment with six different steroids. In the following publications: Int. J. Pharm. 217:1 (2001), and J. Chromatography 49:631 (1993), it has been shown that the chromatographical hydrophobicity index (CHI) measured under isocratical conditions is a reliable descriptor of lipophilicity. The CHI values of the investigated steroids were determined according to these experiments (Table 3) and correlated with the measured stratum corneum/water distribution coefficients.

C#C[C@]1(O)CC[C@H]2[C@@H]3CCC4=C/C(=N/O)CC[C@@H]4[C@H]3CC[C@@]21CC (single isomer, unassigned; isomer d) [E-isomer, d-(17α)-13-ethyl-17-hydroxy-18,19-dinorpregn-4-ene-20-yn-3-one-(3E)-oxime]
solubility [1]: 3.8 µg/mL (≈ 11.6 µM) | Polarity (k′, HPLC) [2]: 1.02 | Polarity (CHI index, HPLC) [2]: 74 | Metabolic stability [3]: 86.7 ± 1.67 | Metabolic clearance (mL/min g liver) [3]: 0.1815 ± 0.026 mL/min g liver | Concentration on the abluminal side (μM in the 30th min) [4]: 1.27 ± 0.56 µM

C[C@]12CCC(=O)C=C1CC[C@@H]1[C@@H]2CC[C@@]2(C)[C@H]1CC[C@]2(O)C(=O)CO [Cortexolone]
CHI [5]: 54.87

C[C@]12CCC(=O)C=C1CC[C@@H]1[C@@H]2[C@@H](O)C[C@@]2(C)[C@H]1CC[C@]2(O)C(=O)CO [Hydrocortisone]
CHI [5]: 33.8

C[C@]12CC[C@H]3[C@@H](CCC4=CC(=O)CC[C@@]43C)[C@@H]1CC[C@@H]2O [Testosterone]
CHI [5]: 75.87

CC(=O)[C@H]1CC[C@H]2[C@@H]3CC=C4C[C@@H](O)CC[C@]4(C)[C@H]3CC[C@]12C [Pregnenolone]
CHI [5]: 95.36

C#C[C@]1(O)CC[C@H]2[C@@H]3CCC4=C/C(=N\O)CC[C@@H]4[C@H]3CC[C@@]21CC (single isomer, unassigned; isomer d) [Z-isomer, d-(17α)-13-ethyl-17-hydroxy-18,19-dinorpregn-4-ene-20-yn-3-one-(3Z)-oxime]
solubility [1]: 12.1 µg/mL (≈ 37 µM) | Polarity (k′, HPLC) [2]: 1.46 | Polarity (CHI index, HPLC) [2]: 70 | Metabolic stability [3]: 91.9 ± 1.52 | Metabolic clearance (mL/min g liver) [3]: 0.1042 ± 0.021 mL/min g liver | Concentration on the abluminal side (μM in the 30th min) [4]: 1.98 ± 0.78 µM

C[C@]12CC[C@@H]3c4ccc(O)cc4CC[C@H]3[C@@H]1C[C@@H](O)[C@@H]2O [Estriol]
CHI [5]: 40.45
